Assays:
Assay in all cases: Gentamycin Disk Diffusion test
Conditions in all cases: disk method
S. aureus MSSA = format: cell-based, Staphylococcus aureus
S. aureus MRSA = format: cell-based, Staphylococcus aureus
E. Coli B3095141^r = format: cell-based, Escherichia coli
E. Coli-ESBL negative = format: cell-based, Escherichia coli
[1] = tested on: Enterobacter cloacae W25161^r; format: cell-based
E. Coli-ESBL positive = format: cell-based, Escherichia coli
[2] = tested on: K. pneumoniae-ESBL negative; format: cell-based, Klebsiella pneumoniae
Enterobacter aerogenes = format: cell-based
A. baumannii R16998^r = format: cell-based, Acinetobacter baumannii
[3] = tested on: A. baumannii-amikacin^r, meropenem^r; format: cell-based, Acinetobacter baumannii
[4] = tested on: K. pneumoniae-ESBL positive; format: cell-based, Klebsiella pneumoniae
S. epidermidis MRSE = format: cell-based, Staphylococcus epidermidis
[5] = tested on: A. baumannii-amikacin^s, meropenem^s; format: cell-based, Acinetobacter baumannii
S. epidermidis MSSE = format: cell-based, Staphylococcus epidermidis
[6] = tested on: Enterococcus faecalis-vancomycin^r; format: cell-based

Gentamycin
Gentamycin (disk): resistance or sensitivity of the tested strain (S. aureus MSSA): r (resistance of the tested strain (disk method diameter ≦12 millimeters, equivalent to a MIC ≧8 mg/liter))
Gentamycin (disk): resistance or sensitivity of the tested strain (S. aureus MRSA): s (sensitivity of the tested strain (disk method diameter ≧15 millimeters, equivalent to a MIC ≦4 mg/liter))
Gentamycin (disk): resistance or sensitivity of the tested strain (E. Coli B3095141^r): r (resistance of the tested strain (disk method diameter ≦12 millimeters, equivalent to a MIC ≧8 mg/liter))
Gentamycin (disk): resistance or sensitivity of the tested strain (E. Coli-ESBL negative): s (sensitivity of the tested strain (disk method diameter ≧15 millimeters, equivalent to a MIC ≦4 mg/liter))
Gentamycin (disk): resistance or sensitivity of the tested strain [1]: r (resistance of the tested strain (disk method diameter ≦12 millimeters, equivalent to a MIC ≧8 mg/liter))
Gentamycin (disk): resistance or sensitivity of the tested strain (E. Coli-ESBL positive): r (resistance of the tested strain (disk method diameter ≦12 millimeters, equivalent to a MIC ≧8 mg/liter))
Gentamycin (disk): resistance or sensitivity of the tested strain [2]: s (sensitivity of the tested strain (disk method diameter ≧15 millimeters, equivalent to a MIC ≦4 mg/liter))
Gentamycin (disk): resistance or sensitivity of the tested strain (Enterobacter aerogenes): r (resistance of the tested strain (disk method diameter ≦12 millimeters, equivalent to a MIC ≧8 mg/liter))
Gentamycin (disk): resistance or sensitivity of the tested strain (A. baumannii R16998^r): r (resistance of the tested strain (disk method diameter ≦12 millimeters, equivalent to a MIC ≧8 mg/liter))
Gentamycin (disk): resistance or sensitivity of the tested strain [3]: r (resistance of the tested strain (disk method diameter ≦12 millimeters, equivalent to a MIC ≧8 mg/liter))
Gentamycin (disk): resistance or sensitivity of the tested strain [4]: r (resistance of the tested strain (disk method diameter ≦12 millimeters, equivalent to a MIC ≧8 mg/liter))
Gentamycin (disk): resistance or sensitivity of the tested strain (S. epidermidis MRSE): s (sensitivity of the tested strain (disk method diameter ≧15 millimeters, equivalent to a MIC ≦4 mg/liter))
Gentamycin (disk): resistance or sensitivity of the tested strain [5]: r (resistance of the tested strain (disk method diameter ≦12 millimeters, equivalent to a MIC ≧8 mg/liter))
Gentamycin (disk): resistance or sensitivity of the tested strain (S. epidermidis MSSE): s (sensitivity of the tested strain (disk method diameter ≧15 millimeters, equivalent to a MIC ≦4 mg/liter))
Gentamycin (disk): resistance or sensitivity of the tested strain [6]: r (resistance of the tested strain (disk method diameter ≦12 millimeters, equivalent to a MIC ≧8 mg/liter))

From patent publication US20060166867A1, “Novel conjugates of polysaccharides and uses thereof” (priority 2003, published 2006)
